The values below come from article PMC5382548 (Scientific Reports, 2015).

For experiment [1], the system named is KRAS21R G4. As to the kind of experiment: FRET melting assay, KRAS21R G4. Format: binding, human. Particulars: G4 0.2 μM, ligand 1 μM, K-cacodylate buffer pH 7.4, 60 mM K+. On the procedure:
(§1) Fluorescence resonance energy transfer (FRET) studies with DNA sequences labelled at the 5′ and 3′ ends, were conducted to evaluate the G4 DNA stabilizing properties of IQcs (at 0.1 to 5 μM ligand concentrations). The G4-forming sequence KRAS21R[11], together with T-loop, a 26-mer hairpin double-stranded DNA (ds-DNA) sequence were used in the first screening assay. Reproducible IQc dose-dependent melting curves (Sup. Inf.; Figure S3) and stabilization temperature (ΔTm) values were obtained (Figure 2 and Table S5).
(§2) Figure 2 FRET stabilization temperatures (ΔTm) of KRAS21R G4 and hairpin ds-DNA (T-loop) at 0.2 μM, in K-cacodylate buffer (pH = 7.4, 60 mM K^+), stabilized by IQc derivatives and TMPyP4 at 1 μM. ^a) SD ≤ 0.2°C. TEXT PRINTED IN THE PICTURE: TMPyP4: ΔTm / °C ^a) (T-Loop): 16.0; ΔTm / °C ^a) (KRAS21R): 25.1 | 3e: ΔTm / °C ^a) (T-Loop): 6.5; ΔTm / °C ^a) (KRAS21R): 22.0 | 3d: ΔTm / °C ^a) (T-Loop): 5.6; ΔTm / °C ^a) (KRAS21R): 19.9 | 2d: ΔTm / °C ^a) (T-Loop): 6.1; ΔTm / °C ^a) (KRAS21R): 15.1 | 2a: ΔTm / °C ^a) (T-Loop): 1.5; ΔTm / °C ^a) (KRAS21R): 4.4 […]
(§3) Oligonucleotide sequences were purchased from Eurofins MWG Synthesis GmbH, Germany or STAB VIDA Genomics Lab, Caparica, Lisbon, Portugal. The labelled oligonucleotides used in the FRET assays had attached the donor fluorophore FAM (6-carboxyfluorescein) and the acceptor fluorophore TAMRA (6-carboxytetramethylrhodamine): KRAS21R: 5′-FAM-[…]-TAMRA-3′; KRAS32R: 5′-FAM-[…]-TAMRA-3′; UTR-1: 5′-FAM-GCGGCGGCGGAGG-TAMRA-3′; UTR-2: 5′-FAM-[…]-TAMRA-3; T-Loop:5′-FAM-[…]-TAMRA-3′; F21T: 5′-FAM-[…]-TAMRA-3′. Non-labelled oligonucleotides were used in FRET competition assays and in the spectroscopic studies: ds26: - d(5′-CAATCGGATCGAATT CGATCCGATTG-3′); KRAS21R: 5′-[…]-3′; HT21: 5′-[…]-3′. Each oligonucleotide was initially diluted to a storage solution at 100 μM in nuclease-free water (not DEPC-treated), purchased from Ambion Applied Biosystems UK.
(§4) The ability of indolo[3,2-c]quinolines to stabilize DNA sequences was investigated using a Fluorescence Resonance Energy Transfer (FRET) assay as reported elsewhere.
(§5) Figure S3 (cont.)| Concentration-dependent (0.1, 0.5, 1, 2, 3, 4 and 5 µM) FRET melting profiles of G4 structures and T-loop DNA with indolo[3,2-c]quinoline derivatives 1a, 2a-g and 3d-j in K-cacodylate buffer (pH 7.4, 60 mM K+). […]
(§6) Table S5 | FRET stabilization temperatures (ΔTm) of G4s sequences and ds-DNA (0.2 µM) stabilized by […]

Experiment [2] deals with T-loop, a 26-mer hairpin double-stranded DNA. As to the kind of experiment: FRET melting assay, T-loop hairpin ds-DNA. It is filed as binding. The note with it: ds-DNA 0.2 μM, ligand 1 μM, K-cacodylate buffer pH 7.4, 60 mM K+. The procedure: as §1, §2, §3, §4, §5, §6
The subject of experiment [3] is HCT116 (colon). As to the kind of experiment: MTS short-term cytotoxicity assay, HCT116. It is filed as cell-based, human. Particulars: Homo sapiens, HCT-116; MTS assay, 72 h; read-out: IC50 HCT116. The procedure: (§7) Short-term anti-proliferative assays were carried out by two different assays using a panel of human cancer and non-malignant human cell lines. […] The transformed human embryonic kidney cell line HEK293T (wt KRAS) was sensitive to all tested drugs, including TMPyP4, a cationic porphyrin established as a G4 ligand, as well as the anticancer drug 5-fluorouracil (5-FU).
(§8) HCT116 human colon carcinoma cells, SW620 human colorectal adenocarcinoma and HEK293 T human embryonic kidney cells were grown in Dulbecco's modified Eagle's medium (DMEM) supplemented with 10% fetal bovine serum, and 1% antibiotic/antimycotic (Invitrogen, Grand Island, NY, USA) and maintained at 37°C in a humidified atmosphere of 5% CO2. Cells were seeded in 96 well plates at 5.000 cells/well. Twenty-four hours after cell plating, media was removed and replaced with fresh media containing test compounds and 5-FU (Sigma), a common cytotoxic agent used in colon cancer treatmen, or vehicle control (DMSO). Following 72 h of compound exposure, cell viability was evaluated using the CellTiter 96 AQueous Non-Radioactive Cell Proliferation Assay (Promega, Madison, WI, USA), using 3-(4,5-dimethylthiazol-2-yl)-5-(3-carboxymethoxyphenyl)-2-(4-sulfophenyl)-2H-tetrazolium, inner salt (MTS) as previously described. Cell viability data were expressed as mean ± SEM or mean ± SD from at least three independent experiments. IC50 and IC65 values were determined using GaphPad Prism v.5.00 (GraphPad Software). (Performed at Cell Function and Therapeutic Targeting Group, iMed.ULisboa)
In general terms: Formazan colour is commonly taken as a measure of viable cells.

Experiment [4] deals with SW620 (metastatic colon). As to the kind of experiment: MTS short-term cytotoxicity assay, SW620. It is filed as cell-based. The note with it: Homo sapiens, SW-620; MTS assay, 72 h; read-out: IC50 SW620. On the procedure: as §7, §8
Experiment [5] concerns HEK293T (embryonic kidney). As to the kind of experiment: MTS short-term cytotoxicity assay, HEK293T. Format: cell-based. Particulars: Homo sapiens, HEK-293T; MTS assay, 72 h; read-out: IC50 HEK293T. The procedure:
as §7, §8

Experiment [6] concerns colon cancer cell lines with mutated KRAS. The experiment is described as follows: Anti-proliferative activity, colon cancer cell lines with mutated KRAS. It is filed as cell-based. Particulars: Homo sapiens; range over HCT116 and SW620.
Source text: These differences may be due to differing effects on cellular proliferation mechanisms, on cellular uptake and/or intracellular distribution. Assuming a passive diffusion membrane transport for IQcs, compound 2d is expected to accumulate more inside cells due to its predicted higher lipophilicity than compounds with an additional protonated basic group at physiologic pH (3d and 3e). Similarly, the tetra-cationic porphyrin TMPyP4, which is known to have low cell-membrane permeability, gave higher IC50 values.
as §8, with “Cells were seeded in 96 well plates at 5.000 cells/well. Twenty-four hours after cell plating, media was removed and replaced with fresh media containing test compounds and 5-FU (Sigma), a common cytotoxic agent used in colon cancer treatmen, or vehicle control (DMSO).” left out, “(Performed at Cell Function and Therapeutic Targeting Group, iMed.ULisboa)” left out

Experiment [7] relates to SW620 metastatic colon cancer cells. The experiment is described as follows: Guava ViaCount assay, SW620. The note with it: IC65 concentration, 72 h. Format: cell-based, human. The source says: The ability of IQcs to induce cell death in colon cancer cell lines with different genotypes (HCT116 and SW620) and in the non-malignant cell line HEK293T was studied by a Guava Via Count assay and compared with the behaviour of 5-FU and TMPyP4 at equitoxic concentrations (IC50 and IC65). Results in Figure 7 show dose-dependent induction of cell death, mainly by apoptosis, by all tested compounds in the HCT116 colon cancer cell line. […] In SW620 metastatic colon cancer cells, cell death induction was highly dependent on the number and position of side chains in IQc compounds. […]
Figure 7 Evaluation of the effect of IQc on cell viability using the ViaCount assay. […] Results are expressed as the mean percentage (%) of viable (white), mid-apoptotic (grey) and dead (black) cells ± SEM, of at least three different experiments, for (a) IC50, and for (b) IC65 compound concentrations. a, p < 0.05; b, p < 0.01 from DMSO (vehicle control); c, p < 0.05; and d, p < 0.01 from 5-FU. […]
Taqman Real-time PCR reactions were performed using 1.5 µg of total RNA, using High Capacity RNA to cDNA kit, according to the manufacturer`s instruction. […] The comparative threshold cycle method was used to calculate the amplification factor, where the threshold cycle (Ct) is defined as the cycle number at which the fluorescence passes the fixed threshold intensity level. […]

In the case of `Brc1ccc2ncc3c4ccccc4[nH]c3c2c1` [compound 1], the “FRET stabilization temperature ΔTm (KRAS21R)” value in experiment [1] was “reduced or negligible ability to stabilize the KRAS21R G4”; in experiment [1] (listed as 1a) it was 0.7 °C. In experiment [2], the “FRET stabilization temperature ΔTm (T-loop)” value worked out at 0.4 °C. The concentration for half-maximal inhibition (IC50) (in general, the midpoint of a concentration-inhibition curve) in experiment [3] was 9.91 µM; in experiment [4], 10.7 µM; in experiment [5] it was 8.03 µM.
Turning to `C[n+]1cc2c3ccccc3[nH]c2c2cc(NCCCN3CCCCC3)ccc21` [2e], the “FRET stabilization temperature ΔTm (KRAS21R)” value in experiment [1] was found to be 13.4 °C. Further, the “FRET stabilization temperature ΔTm (T-loop)” value in experiment [2] was 5.2 °C.
The molecule `O=c1[nH]cc(F)c(=O)[nH]1` [5-FU, 5-fluorouracil, reference compound] gave an IC50 in experiment [6] of 2.38 to 5.39 µM. Besides, in experiment [7], the “Cell death induced, SW620” value was over 20%.
On to `CCN(CC)CCCC(C)Nc1ccc2c(c1)[nH]c1c2c[n+](C)c2ccc(NC(C)CCCN(CC)CC)cc12.[Cl-]` (centres unmarked) [3i], for which the “FRET stabilization temperature ΔTm (KRAS21R)” value in experiment [1] was found to be 13.9 °C. The “FRET stabilization temperature ΔTm (T-loop)” value in experiment [2] was 2.4 °C.
As to `C[n+]1cc2c3cc(NCCCN4CCOCC4)ccc3[nH]c2c2cc(NCCCN3CCOCC3)ccc21` [3f], the “FRET stabilization temperature ΔTm (KRAS21R)” value in experiment [1] is 14.1 °C. For the same molecule, the “FRET stabilization temperature ΔTm (T-loop)” value in experiment [2] came out at 4.9 °C.
The matching figures for `CCN(CC)CCCC(C)Nc1ccc2c(c1)c1[nH]c3ccccc3c1c[n+]2C.[Cl-]` (centres unmarked) [2g]: 15.4 °C and 1.9 °C.
For `C[n+]1cc2c3ccc(NCCCN4CCOCC4)cc3[nH]c2c2cc(NCCCN3CCOCC3)ccc21` [3g], in experiment [1], the “FRET stabilization temperature ΔTm (KRAS21R)” value is 13.2 °C. Further, the “FRET stabilization temperature ΔTm (T-loop)” value in experiment [2] is 2.9 °C.
Take `C[n+]1cc2c3ccccc3[nH]c2c2cc(NCCCN3CCOCC3)ccc21` [2f]: the “FRET stabilization temperature ΔTm (KRAS21R)” value in experiment [1] came to 10.1 °C. Moreover, in experiment [2], the “FRET stabilization temperature ΔTm (T-loop)” value was 3.4 °C.
On to `CCN(CC)CCCNc1ccc2c(c1)[nH]c1c2c[n+](Cc2ccccc2)c2ccc(NCCCN(CC)CC)cc12.[Cl-]` [3j], for which the “FRET stabilization temperature ΔTm (KRAS21R)” value in experiment [1] was determined as 16.8 °C. Further, in experiment [2], the “FRET stabilization temperature ΔTm (T-loop)” value was determined as 5.2 °C.
The matching figures for `CCN(CC)CCNc1ccc2c(c1)c1[nH]c3ccccc3c1c[n+]2C` [2b]: 12.6 °C and 7.2 °C.
For `CCN(CC)CCCC(C)Nc1ccc2[nH]c3c(c[n+](C)c4ccc(NC(C)CCCN(CC)CC)cc34)c2c1.[Cl-]` (centres unmarked) [3h], the “FRET stabilization temperature ΔTm (KRAS21R)” value in experiment [1] was 11.8 °C. In addition, the “FRET stabilization temperature ΔTm (T-loop)” value in experiment [2] was found to be 1.7 °C.
As to `CC(C)NCCCNc1ccc2c(c1)c1[nH]c3ccccc3c1c[n+]2C` [2c], the “FRET stabilization temperature ΔTm (KRAS21R)” value in experiment [1] came to 14.5 °C. In addition, the “FRET stabilization temperature ΔTm (T-loop)” value in experiment [2] turned out to be 9.1 °C.
In the case of `Brc1ccc2c3cn(Cc4ccccc4)c4ccc(Br)cc4c-3nc2c1` [3c], the “FRET stabilization temperature ΔTm (T-loop)” value in experiment [2] was found to be 0.3 °C.
